Structures can show the parent of a compound that is named as a salt.
Legend:
[1] = test system: soybeans (Glycine max) Adelphia variety; test: Increasing axillary branching and improving the canopy of broad leaf plants (soybeans); format: in vivo, soybean (Glycine max); conditions: three weeks after treatment
From the text: In these tests seedling soybean plants approximately three weeks old, and grown in plastic pots to the 2nd to 3rd trifoliate stage, are sprayed with solutions or dispersions of test compound prepared as described in Example 7 above. The same spraying apparatus, described in Example 7 above, is used and after spraying the plants are placed on greenhouse benches and watered and fertilized. Three weeks after treatment the plants are examined to determine what effect the application of test compound has had on the axillary branching and canopy development of the treated plants.
Increased axillary branching and improved canopy are biological responses which are highly advantageous in the growing of ornamental plants. These responses also have advantage in many crops since increased branching may result in the greater production of fruit, while improved canopy tends to shade and suppress the growth of undesirable weeds that compete with the crops for sunlight, water and plant nutrients. Data obtained are reported in table VII below where axillary branching and canopy are reported as percent increase over untreated controls.

[2] = test system: soybeans (Glycine max) var. Adelphia; test: Increasing flowering of plants (soybeans); format: in vivo, soybean (Glycine max); conditions: three weeks after spraying
Procedure: In the following tests seedling soybean plants growing in plastic cups are sprayed with aqueous-acetone solutions or dispersions of test compounds when they have reached the 2nd to 3rd trifoliate stage. Test solutions or dispersions are prepared with 0.25 v/v Colloidal BIOFILM® surfactant and sufficient test compound to provide the plants with 0.5, 0.25, 0.125 or 0.06 kg/ha of said compound when the test solutions are sprayed on said plants from an overhead sprayer delivering 747 l/ha of solution.
After spraying the plants are placed on greenhouse benches and watered and fertilized. Three weeks after spraying the plants are examined and the amount of flowering determined for all plants. Data obtained are reported in the table below as percent increase in flowering over untreated controls.
From the data reported in Table VIII below it can be seen that the compounds of the present invention applied at rates of from 0.06 to 0.25 kg/ha enhance flowering of treated plant more than 10% over untreated controls. This response is particularly desirable for treatment of flowering varieties of ornamental plants as well as agronomic crops.

barley (Hordeum vulgare) = test: Dwarfing of barley (plant height, greenhouse, foliar spray); format: in vivo; conditions: three weeks after spraying
Procedure: (§1) In the following tests, test compounds are dissolved or dispersed in acetone-water (1:1) mixtures at the final concentration corresponding to the kg/ha rates indicated in the table below. The solution also contains 0.25% v/v colloidal BIOFILM® (a product of Colloidal Products Corp.) which is a mixture of alkyl aryl polyethoxyethanol, free and combined fatty acids, glycol ethers, dialkylbenzene carboxylate and 2-propanol.
(§2) The plant species used in these tests are barley (Hordeum vulgare), (Mexico) and soybean (Glycine max)Adelphia.
(§3) The solution or dispersion of the compound under test is sprayed at a rate of 747 l/ha with a moving nozzle along an overhead stationary track. The spray nozzle moves at a constant speed over the plants.
(§4) The plants are grown in plastic pots, and are well established at the time of treatment. The seedlings of barley are 10 to 20 cm in height, while the seedlings of soybeans are at the second to third trifoliate stage. Plants are watered prior to treatment and then sprayed to provide the kg/ha rate of test compound desired. After spraying the plants are placed on greenhouse benches and watered and fertilized in accordance with normal greenhouse procedures.
(§5) Three weeks after spraying the plants are measured and harvested. Harvesting is done at the boot stage. All treatments are replicated six times and comparisons are made against untreated controls. Data obtained are reported in Table VI below as percent reduction in plant height over untreated controls.

[3] = test system: soybean (Glycine max) Adelphia; test: Dwarfing and stem stiffening of soybeans (plant height, greenhouse, foliar spray); format: in vivo; conditions: three weeks after spraying
Procedure: as §1, §2, §3, §4, §5

[4] = rate 0.125 kg/ha, listed as Methylamine salt with 2,4,6-tribromo-N--aci-nitroaniline

O=[N+]([O-])Nc1c(Br)cc(Br)cc1Br [2,4,6-Tribromo-N--nitroaniline with dibenzylamine]
% Increase in Plant Canopy over untreated controls ([1]; rate 0.125 kg/ha): normal
% Increase in axillary branching over untreated controls ([1]; rate 0.125 kg/ha): normal
% Increase in axillary branching over untreated controls ([1]; rate 0.25 kg/ha): normal
% Increase in Flowering over untreated controls ([2]; rate 0.125 kg/ha): normal

O=[N+]([O-])Nc1c(Br)cc(Br)cc1Br [2,4,6-Tribromo-N--nitroaniline with ammonia (1:1)]
% Increase in Plant Canopy over untreated controls ([1]; rate 0.5 kg/ha): Injury
% Reduction in Plant Height over untreated controls (barley (Hordeum vulgare); rate 0.50 kg/ha): 16.3%
% Reduction in Plant Height over untreated controls (barley (Hordeum vulgare); rate 1.5 kg/ha): 15.3%
% Reduction in Plant Height over untreated controls ([3]; rate 0.5 kg/ha): > 60%
% Reduction in Plant Height over untreated controls ([3]; rate 2.0 kg/ha): > 60%

Cn1c(-c2ccccc2)cc(C2CCCCC2)[n+]1C.O=[N+]([O-])[N-]c1c(Br)cc(Br)cc1Br [3-Cyclohexyl-1,2-dimethyl-5-phenylpyrazolium salt with 2,4,6-tribromo-N--aci-nitroaniline]
% Increase in Plant Canopy over untreated controls ([1]; rate 0.5 kg/ha): slight reduction
% Reduction in Plant Height over untreated controls ([3]; rate 0.125 kg/ha): > 10%
% Reduction in Plant Height over untreated controls ([3]; rate 0.25 kg/ha): > 20%
% Reduction in Plant Height over untreated controls ([3]; rate 0.5 kg/ha): > 40%

Cn1c(-c2ccccc2)cc(-c2ccccc2)[n+]1C.O=[N+]([O-])[N-]c1c(Br)cc(Br)cc1I [1,2-Dimethyl-3,5-diphenylpyrazolium salt with 2,4-dibromo-6-iodo-N--aci-nitroaniline]
% Reduction in Plant Height over untreated controls ([3]; rate 0.125 kg/ha): > 10%
% Reduction in Plant Height over untreated controls ([3]; rate 0.25 kg/ha): > 15%
% Reduction in Plant Height over untreated controls ([3]; rate 0.5 kg/ha): > 25%
% Increase in Flowering over untreated controls ([2]; rate 0.5 kg/ha): normal

Cc1cc(C)c([N-][N+](=O)[O-])c(C)c1.Cn1c(-c2ccccc2)cc(-c2ccccc2)[n+]1C [1,2-Dimethyl-3,5-diphenylpyrazolium salt with 2,4,6-Trimethyl-N--aci-nitroaniline]
% Increase in Plant Canopy over untreated controls ([1]; rate 0.125 kg/ha): normal
% Increase in axillary branching over untreated controls ([1]; rate 0.125 kg/ha): normal
% Reduction in Plant Height over untreated controls ([3]; rate 0.125 kg/ha): slight increase
% Reduction in Plant Height over untreated controls ([3]; rate 0.25 kg/ha): > 5%
% Reduction in Plant Height over untreated controls ([3]; rate 0.5 kg/ha): > 10%

O=[N+]([O-])Nc1c(Br)cc(Br)cc1Br [2,4,6-Tribromo-N--nitroaniline with methylamine (1:1)]
% Increase in Plant Canopy over untreated controls [1, 4]: normal
% Increase in axillary branching over untreated controls [1, 4]: normal
% Increase in axillary branching over untreated controls ([1]; rate 0.25 kg/ha, listed as Methylamine salt with 2,4,6-tribromo-N--aci-nitroaniline): normal
% Increase in axillary branching over untreated controls ([1]; rate 0.5 kg/ha, listed as Methylamine salt with 2,4,6-tribromo-N--aci-nitroaniline): normal
% Reduction in Plant Height over untreated controls (barley (Hordeum vulgare); rate 0.11 kg/ha): 10%
% Reduction in Plant Height over untreated controls (barley (Hordeum vulgare); rate 0.56 kg/ha): > 50%
% Reduction in Plant Height over untreated controls (barley (Hordeum vulgare); rate 2.24 kg/ha): > 50%
% Reduction in Plant Height over untreated controls ([3]; rate 0.5 kg/ha): > 60%
% Reduction in Plant Height over untreated controls ([3]; rate 2.0 kg/ha): > 60%

O=[N+]([O-])Nc1c(Br)cc(Br)cc1Br [1,1-Dimethylpiperidinium salt with 2,4,6-tribromo-N--aci-nit] [1,1-Dimethylpiperidinium salt with 2,4,6-tribromo-N--aci-nitroaniline]
% Increase in Plant Canopy over untreated controls ([1]; rate 0.125 kg/ha): normal
% Increase in axillary branching over untreated controls ([1]; rate 0.125 kg/ha): normal
% Increase in axillary branching over untreated controls ([1]; rate 0.25 kg/ha): normal
% Reduction in Plant Height over untreated controls ([3]; rate 0.125 kg/ha): > 25%
% Reduction in Plant Height over untreated controls ([3]; rate 0.25 kg/ha): > 35%
% Reduction in Plant Height over untreated controls ([3]; rate 0.5 kg/ha): > 50%
% Increase in Flowering over untreated controls ([2]; rate 0.125 kg/ha): normal

O=[N+]([O-])Nc1c(Br)cc(Br)cc1Br [2,4,6-Tribromo-N--nitroaniline with dodecylamine]
% Increase in Plant Canopy over untreated controls ([1]; rate 0.125 kg/ha): normal
% Increase in axillary branching over untreated controls ([1]; rate 0.125 kg/ha): normal
% Increase in Flowering over untreated controls ([2]; rate 0.125 kg/ha): normal

O=[N+]([O-])Nc1c(Br)cc(Br)cc1Br [2,4,6-Tribromo-N--nitroaniline with octylamine (1:1)]
% Increase in axillary branching over untreated controls ([1]; rate 0.125 kg/ha, octylamine salt): normal
% Increase in Plant Canopy over untreated controls ([1]; rate 0.5 kg/ha, octylamine salt): slight reduction
% Reduction in Plant Height over untreated controls (barley (Hordeum vulgare); rate 0.17 kg/ha): 10.5%
% Reduction in Plant Height over untreated controls (barley (Hordeum vulgare); rate 0.50 kg/ha): 13.0%
% Reduction in Plant Height over untreated controls (barley (Hordeum vulgare); rate 1.5 kg/ha): 11.1%

O=[N+]([O-])Nc1c(Br)cc(Br)cc1Br [2,4,6-Tribromo-N--nitroaniline, Calcium salt]
% Increase in Plant Canopy over untreated controls ([1]; rate 0.25 kg/ha, listed as 2,4,6-Tribromo-N--aci-nitroaniline calcium salt (2:1), Calcium salt): slight reduction
% Increase in Plant Canopy over untreated controls ([1]; rate 0.5 kg/ha, listed as 2,4,6-Tribromo-N--aci-nitroaniline calcium salt (2:1), Calcium salt): moderate reduction

CCCC[P+](CCCC)(CCCC)Cc1ccc(Cl)cc1Cl.O=[N+]([O-])[N-]c1c(Br)cc(Br)cc1Br [Tributyl(2,4-dichlorobenzyl) phosphonium salt with 2,4,6-tribromo-N--aci-nitroaniline]
% Increase in Plant Canopy over untreated controls ([1]; rate 0.125 kg/ha): normal
% Increase in axillary branching over untreated controls ([1]; rate 0.125 kg/ha): normal
% Increase in Plant Canopy over untreated controls ([1]; rate 0.5 kg/ha): moderate reduction

O=[N+]([O-])Nc1c(Br)cc(Br)cc1Br [Benzyltriethylammonium salt with 2,4,6-tribromo-N--aci-nitro] [Benzyltriethylammonium salt with 2,4,6-tribromo-N--aci-nitroaniline]
% Increase in Plant Canopy over untreated controls ([1]; rate 0.125 kg/ha): normal
% Increase in axillary branching over untreated controls ([1]; rate 0.125 kg/ha): normal
% Increase in axillary branching over untreated controls ([1]; rate 0.25 kg/ha): normal
% Reduction in Plant Height over untreated controls ([3]; rate 0.125 kg/ha): > 25%
% Reduction in Plant Height over untreated controls ([3]; rate 0.25 kg/ha): > 35%
% Reduction in Plant Height over untreated controls ([3]; rate 0.5 kg/ha): > 50%

Cn1c(-c2ccccc2)cc(-c2ccccc2)[n+]1C.O=[N+]([O-])[N-]c1c(Br)cc(Cl)cc1Br [1,2-Dimethyl-3,5-diphenylpyrazolium salt with 2,6-dibromo-4-chloro-N--aci-nitroaniline]
% Increase in Plant Canopy over untreated controls ([1]; rate 0.125 kg/ha): normal
% Reduction in Plant Height over untreated controls ([3]; rate 0.125 kg/ha): > 25%
% Reduction in Plant Height over untreated controls ([3]; rate 0.25 kg/ha): > 30%
% Reduction in Plant Height over untreated controls ([3]; rate 0.5 kg/ha): > 40%

O=[N+]([O-])Nc1c(Br)cc(Br)cc1Br [2,4,6-Tribromo-N--nitroaniline, diisopropylamine (1:1)salt]
% Increase in Plant Canopy over untreated controls ([1]; rate 0.5 kg/ha): slight reduction

O=[N+]([O-])Nc1c(Br)cc(Br)cc1Br [2,4,6-Tribromo-N--nitroaniline tetrabutyl, ammonium salt]
% Reduction in Plant Height over untreated controls (barley (Hordeum vulgare); rate 0.17 kg/ha, ammonium salt): 10.5%
% Reduction in Plant Height over untreated controls (barley (Hordeum vulgare); rate 1.5 kg/ha, ammonium salt): 15.8%

Reference: patent US4367339A, “Substituted N-nitroaniline compounds and inorganic and organic salts thereof useful for enhancing auxiliary branching, canopy flowering and crop yield of plant and as lodging inhibitors therefor” (priority 1980, dated 1983)
